Earlier results on 34 molecules are cited in patent publication US20090030403A1, “Methods and Systems for Attenuating the Tolerance Response to a Drug” (priority 2007, published 2009).

Test in data set [1]: not given
The source holds these as a separate data set.

Test in data set [2]: not given
This is another data set of the same source.

The test system of data set [3] is maximal electroshock seizures. To be noted: compared with ethosuximide.
Test in data set [4]: not given
The source holds these as a separate data set.

Setting [5] is: system removing the drug or its metabolites.
The mark [6] stands for this setting: system responsible for the drug's metabolism.

Like-named read-outs stand apart in the source and are kept apart here.

With `CC[C@@H](C(N)=O)N1CCCC1=O` [Levetiracetam, α-ethyl-2-oxo-1-pyrrolidineacetamide], for the setting “in vivo”, the Half life is 6 to 8 h. For the same molecule, under setting [5], the Excretion entry is on record as “Renal”. Moreover, the Metabolism result under setting [6] is reported as “Renal”.
For `CCC(C)C(CC)C(N)=O` (stereo not shown) [Valnoctamide], under “in vivo”, the Bioavailability was 94%[1] and the Half life was 10 h. The Metabolism entry under setting [6] is recorded as “Hepatic”.
On to `NC(=O)OCC(COC(N)=O)c1ccccc1` [Felbamate], for which, where the note is “in vivo”, the Bioavailability is listed as >90% and the Half life is 20 to 23 h. In addition, the Metabolism result under setting [6] is “Hepatic”.
As for `CCC1(c2ccccc2)C(=O)NC(=O)NC1=O` [Phenobarbital], the “Plasma concentration during long term therapy” value in data set [1] (adults, per daily dose of 1 mg/kg) is “about 10 μg/ml”. Besides, where the note is “in vivo”, the Bioavailability is >95%; the Excretion result was “Renal and fecal”; the Half life was 53 to 118 h.
For `CCC1(c2ccccc2)C(=O)NCNC1=O` [Primidone], the “Plasma concentration of the drug during long term therapy” value in data set [1] (per daily dose of 1 mg/kg) was “about 1 μg/ml”. For the same molecule, under “in vivo”, the Bioavailability is >90% and the Half life result was “Primidone: 5-15 hours,”. Also, the Excretion entry under setting [5] was “Renal”. For the same molecule, the Metabolism result under setting [6] is “Hepatic”.
For `NC(=O)NC(=O)Cc1ccccc1` [Phenacemide], for the setting “in vivo”, the Half life is 22 to 25 h.
As to `CN1C(=O)CN=C(c2ccccc2)c2cc(Cl)ccc21` [Diazepam], the “Time to Clinical Onset” value in data set [2] (Rectal) is 5 to 15 min.
In the case of `Cc1ccsc1C(=CCCN1CCC[C@@H](C(=O)O)C1)c1sccc1C` [Tiagabine], the Half life (in vivo) was 7 to 9 h. For the same molecule, the Excretion result under setting [5] was “Fecal and renal”. Also, the Metabolism result under setting [6] is “Hepatic (CYP450 system)”.
Take `CCN1C(=O)NC(c2ccccc2)C1=O` (stereo not shown) [Ethotoin]: the Half life (in vivo) is 3 to 9 h.
With `C=CC(N)CCC(=O)O` (stereo not shown) [Vigabatrin], the Bioavailability (in vivo) is on record as 80-90%. For the same molecule, the Excretion result under setting [5] is given as “Renal”. In addition, under setting [6], the Metabolism entry is “Almost no metabolic transformation occurs”. Moreover, the Half life is 12 to 13 h (the elderly) and 5 to 8 h (young adults).
For `NC(=O)CCC/N=C(\c1ccc(Cl)cc1)c1cc(F)ccc1O` [Progabide], under “in vivo”, the Bioavailability is 0.6 and the Half life is 4 h. The Excretion result under setting [5] is “Renal”. Further, the Metabolism entry under setting [6] is “Hepatic”.
Consider `Nc1nnc(-c2cccc(Cl)c2Cl)c(N)n1` [Lamotrigine], for which the Half life (healthy adults) was 24 to 34 h (healthy adults). Besides, the Excretion entry under setting [5] is reported as “Renal”. Moreover, under setting [6], the Metabolism entry is reported as “Hepatic”.
For `CN1C(=O)CC(=O)N(c2ccccc2)c2cc(Cl)ccc21` [Clobazam], for the setting “in vivo”, the Half life is 18 h. In addition, under setting [5], the Excretion result is given as “Renal”. In addition, under setting [6], the Metabolism entry is reported as “Hepatic”.
For the molecule `CN1C(=O)CC(c2ccccc2)C1=O` (stereo not shown) [Phensuximide], the “Activity against maximal electroshock seizures” value in data set [3] is on record as “more active against maximal electroshock seizures”.
With `CCCC(C)(COC(N)=O)COC(N)=O` [Meprobamate], the Half life (in vivo) was 10 h. Also, the Excretion entry under setting [5] is reported as “Renal”. Under setting [6], the Metabolism result is listed as “Hepatic”.
Consider `O=C1CN=C(c2ccccc2)c2cc([N+](=O)[O-])ccc2N1` [Nitrazepam], for which, where the note is “in vivo”, the Excretion result is given as “Renal” and the Half life was 20 to 40 h. Further, the Metabolism entry under setting [6] is recorded as “Hepatic”.
In the case of `O=C1NC(c2ccccc2)(c2ccccc2)C(=O)N1COP(=O)(O)O` [Fosphenytoin], the Half life (to convert to phenytoin) is 15 minutes to convert to phenytoin.
`NC(=O)N1c2ccccc2C=Cc2ccccc21` [Carbamazepine]: the Excreted unchanged (in urine where stated) was 2-3% excreted unchanged in urine. For the same molecule, the Half life (in vivo) is 25 to 65 h. In addition, the Metabolism entry under setting [6] is “hepatic CYP3A4 to active epoxide form”.
Regarding `O=C1NC(=O)C(c2ccccc2)(c2ccccc2)N1` [Phenytoin, Diphenylhydantoin], the “Concentration at which toxic effects such as nystagmus develop” value in data set [1] (in vivo) is reported as “around 20 μg/ml”. The “Therapeutic (plasma) concentration for control of seizures” value in data set [1] (in vivo) was “above 10 μg/ml”. The Half life (in vivo) was 22 h. Besides, the Bioavailability is on record as 70-100% (oral); 24.4% (rectal and intravenous administration). Besides, the Excretion entry under setting [5] is recorded as “Primarily through the bile”. Also, the Metabolism entry under setting [6] is recorded as “hepatic”.
`CC(C)C[C@H](CN)CC(=O)O` [Pregabalin]: where the note is “in vivo”, the Bioavailability entry was “≧90%” and the Half life is 5 to 6.5 h. Moreover, the Excretion result under setting [5] was “Renal”. Besides, the Metabolism result under setting [6] is given as “Negligible”.
For the molecule `CCC1(C)OC(=O)N(C)C1=O` (stereo not shown) [Paramethadione], the “Protein binding (in words)” value in data set [4] is given as “Not significant”.
For the molecule `CN1C(=O)CC(C)(c2ccccc2)C1=O` (stereo not shown) [Mesuximide], the “Activity against maximal electroshock seizures” value in data set [3] is recorded as “more active against maximal electroshock seizures”. For the same molecule, the Half life is, setting by setting: (active metabolite) 28 to 38 h (active metabolite); (in vivo) 1.4 to 2.6 h (mesuximide). The Excretion result under setting [5] is listed as “Renal”. Moreover, under setting [6], the Metabolism entry was “Hepatic (demethylation and glucuronidation)”.
Consider `NC(=O)N1c2ccccc2CC(=O)c2ccccc21` [Oxcarbazepine], for which, under “healthy adults”, the Half life was 1 to 5 h (healthy adults). Besides, where the note is “in vivo”, the Bioavailability is recorded as >95%.
Take `CC1(C)O[C@@H]2[C@@H](CO[C@@]3(COS(N)(=O)=O)OC(C)(C)O[C@@H]23)O1` [Topiramate, 2,3:4,5-bis-O-(1-methylethylidene)-beta-D-fructopyranose sulfamate]: for the setting “in vivo”, the Half life is 19 to 23 h and the “Metabolism, hepatic share” value was 30%.
For the molecule `NCC1(CC(=O)O)CCCCC1` [Gabapentin], where the note is “in vivo”, the Bioavailability is reported as 60% for 0.9 g daily to 27% for 4.8 g daily dose; the “Bioavailability (absorption in words)” value is “Rapid, in part by saturable carrier-mediated L-”; the Excretion result is given as “Renal”; the “Food increases absorption by” value is reported as “Food increases absorption by 14%”. Also, the Half life (in vivo) is 5 to 7 h. Besides, the Metabolism entry under setting [6] is listed as “not appreciably metabolized”.
`O=C1CN=C(c2ccccc2Cl)c2cc([N+](=O)[O-])ccc2N1` [Clonazepam]: where the note is “in vivo”, the Bioavailability is recorded as 0.9, the Excretion entry is reported as “Renal”, the Half life was 30 to 40 h and the Metabolism entry is on record as “Hepatic CYP3A4”.
For the molecule `NS(=O)(=O)c1ccc(N2CCCCS2(=O)=O)cc1` [Sultiame], the Half life (in vivo) is on record as 24 hour hours. Further, the Bioavailability (oral) is given as 100% (oral). Also, the Excretion entry under setting [5] was “Fecal (10%) and renal (90%)”. In addition, under setting [6], the Metabolism result is “Hepatic secretion”.
Consider `CC(=O)Nc1nnc(S(N)(=O)=O)s1` [Acetazolamide], for which the Half life (in vivo) is 3 to 9 h.
Turning to `CCOc1ccc2nc(S(N)(=O)=O)sc2c1` [Ethoxzolamide], the Protein binding in data set [4] was ~89%. For the same molecule, the Half life (in vivo) was 2.5 to 5.5 h.
For the molecule `O=C1Nc2ccc(Cl)cc2C(c2ccccc2Cl)=NC1O` (stereo not shown) [Lorazepam], under “in vivo”, the Half life is 10 to 20 h. Under setting [5], the Excretion entry is reported as “Renal”. In addition, the Metabolism result under setting [6] was “Hepatic”.
Regarding `O=C(O)C1N=C(c2ccccc2)c2cc(Cl)ccc2NC1=O` (stereo not shown) [Clorazepate], for the setting “in vivo”, the Bioavailability is on record as 0.91 and the Half life is 36 to 100 h. Moreover, the Excretion entry under setting [5] was “Renal”. Under setting [6], the Metabolism result is listed as “Hepatic”.
Take `CCC1(C)CC(=O)NC1=O` (stereo not shown) [Ethosuximide]: the “Plasma concentration of the drug during long term therapy” value in data set [1] (per daily dose of 1 mg/kg) is listed as “about 2 μg/ml”. Moreover, under “in vivo”, the Bioavailability is 93%[1] and the Half life was 53 h. Further, under setting [5], the Excretion result is “Renal (20%)”. For the same molecule, the Metabolism result under setting [6] is “Hepatic (CYP3A4, CYP2E1)”.
With `CCC1(c2ccccc2)NC(=O)N(C)C1=O` (stereo not shown) [Mephenytoin], the Half life (in vivo) was 7 h.
For `Cc1ncc2n1-c1ccc(Cl)cc1C(c1ccccc1F)=NC2` [Midazolam], the Excretion entry (in vivo) was “Renal”. In addition, the Half life (in vivo) was 1.8 to 6.4 h. The Metabolism entry (in vivo) is reported as “Hepatic”. Also, the Bioavailability entry reads like this: (in vivo, im) “I.M. 90%+”; (in vivo, po) “Oral ~36%”. Besides, the figures for the “Time to Clinical Onset” value in data set [2] (Buccal), in data set [2] (Intramuscular) and in data set [2] (Intravenous) were 5 to 8 min, 1 to 5 min and 1 to 5 min, respectively.
